# Columns and labels:
# [1] = test system: barnyardgrass (Echinochloa crus-galli); assay: Test A postemergence, visual injury rating 0-100; format: in vivo; conditions: 0 to 100 scale
# [2] = test system: wheat (Triticum aestivum); assay: Test A postemergence, visual injury rating 0-100; format: in vivo; conditions: 0 to 100 scale
# [3] = test system: pigweed (Amaranthus retroflexus); assay: Test A postemergence, visual injury rating 0-100; format: in vivo; conditions: 0 to 100 scale
# [4] = test system: kochia (Kochia scoparia); assay: Test A postemergence, visual injury rating 0-100; format: in vivo; conditions: 0 to 100 scale
# [5] = test system: blackgrass (Alopecurus myosuroides); assay: Test A postemergence, visual injury rating 0-100; format: in vivo; conditions: 0 to 100 scale
# [6] = test system: ryegrass, Italian (Italian ryegrass, Lolium multiflorum); assay: Test A postemergence, visual injury rating 0-100; format: in vivo; conditions: 0 to 100 scale
# [7] = test system: foxtail, green (green foxtail, Setaria viridis); assay: Test A postemergence, visual injury rating 0-100; format: in vivo; conditions: 0 to 100 scale
# [8] = test system: galium (catchweed bedstraw, Galium aparine); assay: Test A postemergence, visual injury rating 0-100; format: in vivo; conditions: 0 to 100 scale
# [9] = test system: ragweed (common ragweed, Ambrosia elatior); assay: Test A postemergence, visual injury rating 0-100; format: in vivo; conditions: 0 to 100 scale
# [10] = test system: corn (Zea mays); assay: Test A postemergence, visual injury rating 0-100; format: in vivo; conditions: 0 to 100 scale
# [11] = test system: barnyardgrass (Echinochloa crus-galli); assay: Test B flooded paddy test, visual rating 0-100; conditions: Flood, 250 g ai/ha, applied to paddy water, rated after 13 to 15 days
# [12] = test system: ducksalad (Heteranthera limosa); assay: Test B flooded paddy test, visual rating 0-100; conditions: Flood, 250 g ai/ha, applied to paddy water, rated after 13 to 15 days
# [13] = test system: rice (Oryza sativa); assay: Test B flooded paddy test, visual rating 0-100 (0 no effect, 100 complete control); conditions: Flood, 250 g ai/ha, applied to paddy water, rated after 13 to 15 days
# [14] = test system: pigweed (Amaranthus retroflexus); assay: Test A preemergence, visual injury rating 0-100; format: in vivo; conditions: for Pigweed plant response rating: 31 g ai/ha, 0 to 100 scale (0 no effect, 100 complete control), approx. 10 days; for Pigweed plant response rating (0 to 100 scale): 125 g ai/ha
# [15] = test system: kochia (Kochia scoparia); assay: Test A preemergence, visual injury rating 0-100; format: in vivo; conditions: for Kochia plant response rating: 31 g ai/ha, 0 to 100 scale (0 no effect, 100 complete control), approx. 10 days; for Kochia plant response rating (0 to 100 scale): 125 g ai/ha
# [16] = test system: ryegrass, Italian (Italian ryegrass, Lolium multiflorum); assay: Test A preemergence, visual injury rating 0-100; format: in vivo; conditions: for Ryegrass, Italian plant response rating: 31 g ai/ha, 0 to 100 scale (0 no effect, 100 complete control), approx. 10 days; for Ryegrass, Italian plant response rating (0 to 100 scale): 125 g ai/ha
# [17] = test system: foxtail, green (green foxtail, Setaria viridis); assay: Test A preemergence, visual injury rating 0-100; format: in vivo; conditions: for Foxtail, Green plant response rating: 31 g ai/ha, 0 to 100 scale (0 no effect, 100 complete control), approx. 10 days; for Foxtail, Green plant response rating (0 to 100 scale): 125 g ai/ha
# [18] = test system: ragweed (common ragweed, Ambrosia elatior); assay: Test A preemergence, visual injury rating 0-100; format: in vivo; conditions: for Ragweed plant response rating: 31 g ai/ha, 0 to 100 scale (0 no effect, 100 complete control), approx. 10 days; for Ragweed plant response rating (0 to 100 scale): 125 g ai/ha
# [19] = test system: barnyardgrass (Echinochloa crus-galli); assay: Test A preemergence, visual injury rating 0-100 (0 no effect, 100 complete control); format: in vivo; conditions: for Barnyardgrass plant response rating: 31 g ai/ha, 0 to 100 scale (0 no effect, 100 complete control), approx. 10 days; for Barnyardgrass plant response rating (0 to 100 scale): 125 g ai/ha
Structure (SMILES),Barnyardgrass plant response rating ([1]; 31 g ai/ha),Barnyardgrass plant response rating ([1]; 125 g ai/ha),Wheat plant response rating ([2]; 31 g ai/ha),Wheat plant response rating ([2]; 125 g ai/ha),Pigweed plant response rating ([3]; 31 g ai/ha),Pigweed plant response rating ([3]; 125 g ai/ha),Kochia plant response rating ([4]; 31 g ai/ha),Kochia plant response rating ([4]; 125 g ai/ha),Blackgrass plant response rating ([5]; 31 g ai/ha),Blackgrass plant response rating ([5]; 125 g ai/ha),"Ryegrass, Italian plant response rating ([6]; 31 g ai/ha)","Ryegrass, Italian plant response rating ([6]; 125 g ai/ha)","Foxtail, Green plant response rating ([7]; 31 g ai/ha)","Foxtail, Green plant response rating ([7]; 125 g ai/ha)",Galium plant response rating ([8]; 31 g ai/ha),Galium plant response rating ([8]; 125 g ai/ha),Ragweed plant response rating ([9]; 31 g ai/ha),Ragweed plant response rating ([9]; 125 g ai/ha),Corn plant response rating ([10]; 31 g ai/ha),Corn plant response rating ([10]; 125 g ai/ha),also measured
CC1=[N+]([O-])[C@@H](C(=O)Nc2cccc(F)c2F)[C@H](c2ccc(F)c(F)c2)C1 [Compound 39],0,60,0,50,0,0,0,0,0,50,0,10,10,70,0,10,0,0,0,10,"Barnyardgrass plant response rating (0 to 100 scale) [11]: 90; Ducksalad plant response rating (0 to 100 scale) [12]: 100; Rice plant response rating (0 to 100 scale) [13]: 10; Pigweed plant response rating [14]: 0; Pigweed plant response rating (0 to 100 scale) [14]: 30; Kochia plant response rating [15]: 0; Kochia plant response rating (0 to 100 scale) [15]: 30; Ryegrass, Italian plant response rating [16]: 20; Ryegrass, Italian plant response rating (0 to 100 scale) [16]: 10; Foxtail, Green plant response rating [17]: 100; Foxtail, Green plant response rating (0 to 100 scale) [17]: 100; Ragweed plant response rating [18]: 0; Ragweed plant response rating (0 to 100 scale) [18]: 100; Barnyardgrass plant response rating [19]: 100; Barnyardgrass plant response rating (0 to 100 scale) [19]: 100"
"CC1=[N+]([O-])[C@H](C(=O)Nc2cccc(F)c2F)[C@@H](c2ccc(Cl)cc2)C1 [Compound 40, (2S,3R)-3-(4-chlorophenyl)-N-(2,3-difluorophenyl)-3,4-dihydro-5-methyl-2H-pyrrole-2-carboxamide 1-oxide]",80,90,0,10,0,0,0,0,0,60,0,20,40,80,10,60,0,0,20,30,"Barnyardgrass plant response rating (0 to 100 scale) [11]: 80; Ducksalad plant response rating (0 to 100 scale) [12]: 95; Rice plant response rating (0 to 100 scale) [13]: 25; Pigweed plant response rating [14]: 0; Pigweed plant response rating (0 to 100 scale) [14]: 80; Kochia plant response rating [15]: 0; Kochia plant response rating (0 to 100 scale) [15]: 80; Ryegrass, Italian plant response rating [16]: 0; Ryegrass, Italian plant response rating (0 to 100 scale) [16]: 10; Foxtail, Green plant response rating [17]: 100; Foxtail, Green plant response rating (0 to 100 scale) [17]: 100; Ragweed plant response rating [18]: 20; Ragweed plant response rating (0 to 100 scale) [18]: 80; Barnyardgrass plant response rating [19]: 100; Barnyardgrass plant response rating (0 to 100 scale) [19]: 100"
